Entries after “also recorded” stand apart in the source; their conditions may differ.
Tested on: PDE11A4/CyaB1-chimera
Test: Adenylate cyclase activity assay of PDE11A4/CyaB1-chimera (conversion of [α-32P]-ATP to cAMP)
Assay type: biochemical, human

Nc1nc2c(ncn2[C@@H]2O[C@@H]3COP(=O)(O)O[C@H]3[C@H]2O)c(=O)[nH]1 [cGMP]
% basal value (1 mM of cyclic nucleotide, relative to basal enzyme activity): 400%
Classification as PDE11A4-GAF agonist / antagonist (from dose-effect curve, FIG. 5): PDE11A4-GAF agonist; also recorded: selectively activates the GAF domain of PDE11 as agonist

From US20090298108A1, “Method for Identifying PDE11 Modulators” (priority 2005, published 2009)
